Data on 7 molecules can be found in patent publication US10889579B2, “Thiazine derivatives as β-secretase inhibitors and methods of use” (AMGEN INC., priority 2016, dated 2021).

Series [1] has as its target T1, BACE1 (Homo sapiens (Human), UniProt P56817). The series is described as follows: In vitro BACE1 cell-based assay (Aβ40 in conditioned medium, HTRF). Conditions: Aβ40 in conditioned medium of cells stably expressing APP, 24 h. As to the method:
In Vitro BACE1 Cell-Based Assay
The cell-based assay measures inhibition or reduction of Aβ40 in conditioned medium of test compound treated cells expressing amyloid precursor protein. Cells stably expressing Amyloid Precursor Protein (APP) were plated at a density of 45K cells/well in 384 well plates (Corning/BioCoat 354663). The test compounds were then added to cells in 22-point dose response concentrations with the starting concentration being 62.5 μM. The compounds were diluted from stock solutions in DMSO and the final DMSO concentration of the test compounds on cells was 0.625%. The cells were cultivated overnight at 37° C. and 5% CO2 in DMEM supplemented with 10% FBS. After 24 h of incubation with the test compounds, the conditioned media was collected and the Aβ40 levels were determined using HTRF (Homogeneous Time Resolved Fluorescence). The IC50 of the compound was calculated from the percent of control or percent inhibition of Aβ 40 as a function of the concentration of the test compound.
The HTRF to detect Aβ40 was performed in 384 well plates (Costar 3658). The antibody pair that were used to detect Aβ 40 from cell supernatants were ConfAb40 antibody (Amgen in-house) and biotinylated 6E10 (BIOLEGEND). As an alternative to ConfAb40, a commercially available antibody, Anti-beta Amyloid 1-40 antibody [BDI350] from Abcam, Cambridge, Mass. 02139-1517 (Product code: ab20068), may be used in this assay. The concentrations were 0.35 μg/mL of ConfAb40 antibody and 1.33 μg/mL of 6E10-biotinylated antibody, as well as 4.5 μg/mL of Streptavidin Allophycocyanin Conjugate (ThermoFisher Scientific) in HTRF Buffer (1M Hepes pH 7.5, 1M NaCL, 1% BSA, 0.5% Tween 20).
The conditioned media was incubated with above antibodies and Streptavidin Allophycocyanin Conjugate for 30-60 minutes at 23° C. The final readout was performed on Envision from PerkinElmer.
Target sequence in this assay (P56817 46-501, species assumed): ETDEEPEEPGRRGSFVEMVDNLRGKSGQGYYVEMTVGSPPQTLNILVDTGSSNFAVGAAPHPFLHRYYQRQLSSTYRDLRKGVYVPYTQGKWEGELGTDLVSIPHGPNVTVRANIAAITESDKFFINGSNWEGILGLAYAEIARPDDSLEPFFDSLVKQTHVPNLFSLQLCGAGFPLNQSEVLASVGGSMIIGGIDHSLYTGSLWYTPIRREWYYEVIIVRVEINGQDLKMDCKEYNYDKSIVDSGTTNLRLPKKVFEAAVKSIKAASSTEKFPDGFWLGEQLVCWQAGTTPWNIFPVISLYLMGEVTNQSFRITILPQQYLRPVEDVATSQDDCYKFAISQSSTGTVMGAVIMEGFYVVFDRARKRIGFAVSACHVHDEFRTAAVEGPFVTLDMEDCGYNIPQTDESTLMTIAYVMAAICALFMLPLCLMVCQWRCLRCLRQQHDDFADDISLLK
(In TR-FRET formats the signal depends on donor and acceptor labels being close together.)

The target of a further series is human recombinant BACE2 (Homo sapiens (Human), UniProt Q9Y5Z0). Briefly: In vitro enzymatic BACE2 FRET assay. The class given is biochemical. Conditions: pH 4.5, 1 h pre-incubation, read-out: BACE2 Enzyme IC50. As for the experimental part:
(§1) In Vitro Enzymatic BACE1 and BACE2 FRET (Fluorescence Resonance Energy Transfer) Assays
(§2) The cDNAs for both human recombinant BACE1 and 2 with C-terminal 6-His Tags were cloned into transient protein expression vectors, which were subsequently transfected into mammalian cell lines. These recombinant proteins were further purified using Ni-NTA affinity chromatography (Qiagen). The assay buffer used in these screens was 0.05 M acetate, pH 4.5, 8% DMSO final, 100 μM genapol (which is a nonionic detergent, below its Critical Micelle Concentration). The β-secretase enzyme (0.02 nM for BACE1 and 0.64 nM for BACE2), which was pre-incubated for one hour with the test compound, typically in about luL of DMSO according to a serial dilution, was added thereto. The assay was effectively started by the addition of FRET substrate (50 nM) and the combination was incubated for one hour. The FRET assay was terminated by the addition of tris buffer, which raised the pH to neutrality, and the fluorescence was determined. The FRET substrate was a peptide with commercially available fluorophore and quencher, on opposite sides of the BACE cleavage site. The specific FRET substrate used in this assay was made by Amgen in-house. Commercially available FRET substrates, for example, the FRET substrate offered with the BACE1 FRET Assay Kit sold by ThermoFisher Scientific (Catalog Number P2985), may be used in this assay with the appropriate modifications, which are within the purview of the ability of a person with ordinary skill in the art. Proteolytic cleavage of the FRET substrate released quenching of fluorescence (excitation 488 nm and emission 590 nm).

The target of series [2] is T1, BACE1. Briefly: In vitro enzymatic BACE1 FRET assay. The class given is biochemical. Conditions: pH 4.5, 1 h pre-incubation, read-out: BACE1 Enzyme IC50. As to the method:
as §1, §2
Target sequence in this assay (P56817 46-501): as the sequence (P56817 46-501, species assumed) above

The next series addresses Recombinant CatD (Homo sapiens (Human), UniProt P07339). Briefly: In vitro enzymatic Cathepsin D (CatD) FRET assay. The class given is biochemical. The settings on record: pH 3.5, 1 h pre-incubation, read-out: Cat D Enzyme IC50. As for the experimental part: In Vitro Enzymatic Cathepsin D (CatD) FRET Assay Recombinant CatD was expressed in CHO cells. The assay buffer for CatD was 0.05 M citrate pH 3.5, 10% DMSO final, 5 mM CHAPS. The CatD enzyme (9 nM) was pre-incubated for one hour with inhibitors, typically in about luL of DMSO according to a serial dilution, is added thereto. The assays was effectively started by the addition of different FRET substrates (20 nM for CatD) and the combination was incubated for one hour. The FRET assay was terminated with by addition of tris buffer, which raises the pH to neutrality, and the fluorescence was determined. The FRET substrate was a peptide with commercially available fluorophore and quencher, on opposite sides of the CatD cleavage site. The CatD substrate peptide sequence was based on sequence #1 of Table 1 from Gulnik et al., FEBS Lett. 413(2):379-384 (1997). Proteolytic cleavage of the FRET substrate released quenching of fluorescence (CatD excitation 500 nm and emission 580 nm). The in vitro CatD FRET assay data for each of the Examples is provided in Table 2, conducted by the first procedure described above. […] Thus, with this surprising selectivity profile, the compounds provided herein are believed to minimize, reduce or completely eliminate any risk of retinal atrophy and abnormal development of the eye and of the retinal pigmented epithelium as it relates to the normal function and activity of CatD.

The conditions of series [3]: repeated doses up to 200 mg, phase I clinical trial; cited from earlier work.
For series [4], the system named is Aβ peptide levels in the CSF and plasma. Conditions: nonhuman primates; cited from earlier work.
The conditions of series [5]: in vivo; cited from earlier work.
A further series deals with Aβ peptide in CSF. Conditions: cited from earlier work.
Series [6] deals with pigment epithelium of the rat's eye. Conditions: higher compound dose given for three months; cited from earlier work.
Series [7] has as its system CSF Aβ peptide concentrations. Conditions: sustained and dose-dependent manner; cited from earlier work.
For series [8] the following is noted: phase I clinical trials; cited from earlier work.

Sequence of human recombinant BACE2 (Q9Y5Z0 63-518): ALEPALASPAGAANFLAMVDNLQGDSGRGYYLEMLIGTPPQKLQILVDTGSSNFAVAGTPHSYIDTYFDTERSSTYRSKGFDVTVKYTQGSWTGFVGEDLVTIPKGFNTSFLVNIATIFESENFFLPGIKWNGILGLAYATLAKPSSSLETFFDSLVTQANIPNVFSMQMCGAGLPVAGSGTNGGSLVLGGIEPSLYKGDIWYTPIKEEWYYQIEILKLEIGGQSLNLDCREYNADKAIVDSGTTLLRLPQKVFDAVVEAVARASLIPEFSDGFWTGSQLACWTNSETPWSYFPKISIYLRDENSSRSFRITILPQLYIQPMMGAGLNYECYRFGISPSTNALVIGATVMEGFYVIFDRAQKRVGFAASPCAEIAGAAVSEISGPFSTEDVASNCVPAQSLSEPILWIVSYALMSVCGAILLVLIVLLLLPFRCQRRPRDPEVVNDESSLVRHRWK
Sequence of Recombinant CatD (P07339 65-412): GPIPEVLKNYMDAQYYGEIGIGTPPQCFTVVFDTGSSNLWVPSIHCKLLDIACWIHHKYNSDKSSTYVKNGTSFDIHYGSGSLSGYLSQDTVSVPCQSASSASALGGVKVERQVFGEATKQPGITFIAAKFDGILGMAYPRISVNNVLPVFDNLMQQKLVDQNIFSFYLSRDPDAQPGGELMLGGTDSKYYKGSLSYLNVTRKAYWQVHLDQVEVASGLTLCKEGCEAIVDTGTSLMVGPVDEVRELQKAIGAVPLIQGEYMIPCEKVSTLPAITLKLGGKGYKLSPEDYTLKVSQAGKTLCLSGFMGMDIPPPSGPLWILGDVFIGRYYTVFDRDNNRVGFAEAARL

For orientation: IC50 means the concentration at which inhibition is half-maximal. `C#CCOc1cnc(/C(F)=C/c2ccc(F)c([C@]3(C)C[C@@](C)(C(=O)N4CCOCC4)SC(N)=N3)c2)cn1` [Example 114, ((4S,6S)-2-amino-4-(2-fluoro-5-((Z)-2-fluoro-2-(5-(prop-2-yn-1-yloxy)pyrazin-2-yl)vinyl)phenyl)-4,6-dimethyl-5,6-dihydro-4H-1,3-thiazin-6-yl)(morpholino)methanone]: the IC50 at BACE1 [1] was found to be 2 nM; on human recombinant BACE2 it was 358 nM; on BACE1 [2] it was 6 nM; at Recombinant CatD, 21800 nM.

Take `C#CCOc1cnc(/C(F)=C/c2ccc(F)c([C@]3(C)C[C@@](C)(C(=O)NCC(F)F)SC(N)=N3)c2)cn1` [Example 115, (4S,6S)-2-amino-N-(2,2-difluoroethyl)-4-(2-fluoro-5-((Z)-2-fluoro-2-(5-(prop-2-yn-1-yloxy)pyrazin-2-yl)vinyl)phenyl)-4,6-dimethyl-5,6-dihydro-4H-1,3-thiazine-6-carboxamide]: the IC50 at BACE1 [1] was found to be 18 nM; at human recombinant BACE2, 760 nM; on BACE1 [2] it was 24 nM; on Recombinant CatD it was 40200 nM.

As for `CNC(=O)[C@]1(C)C[C@@](C)(c2cc(/C=C(\F)c3ccc(C#N)cn3)ccc2F)N=C(N)S1` [Example 116, (4S,6S)-2-amino-4-(5-((Z)-2-(5-cyanopyridin-2-yl)-2-fluorovinyl)-2-fluorophenyl)-N,4,6-trimethyl-5,6-dihydro-4H-1,3-thiazine-6-carboxamide], the IC50 at BACE1 [1] is 10 nM; at human recombinant BACE2, 560 nM; on BACE1 [2], 25 nM; on Recombinant CatD, 68600 nM.

`C[C@H]1OC[C@]2(c3cc(NC(=O)c4cnc(C(F)F)cn4)ccc3F)N=C(N)SC[C@H]12` [Example E2609]: the clinical safety result in [3] was “did not show clinical significant safety concerns”. Moreover, the “reduction in Aβ peptide levels in the CSF and plasma” value in series [4] was “significant reduction”.

Consider `C[C@@]1(c2cc(NC(=O)c3ccc(C#N)cn3)ccc2F)C=CSC(N)=N1` [JNJ-54861911], for which the “ability to cross the blood-brain barrier” value in series [5] is given as “demonstrated an ability to cross the blood-brain barrier”. Further, the “reduction of Aβ peptide concentrations” value in the series on Aβ peptide in CSF (in vivo) is “dose-dependently reduce Aβ peptide concentrations”. Moreover, the “Aβ peptide reduction in CSF” value in the series with Aβ peptide in CSF (oral dose of 95 mg once daily) is “up to 95%”.

In the case of `C[C@@]1(c2cc(-c3cncnc3)c(F)cc2F)CCSC(N)=N1` [LY 2811376], the eye toxicity finding entry in series [6] is “damaged the pigment epithelium of the rat's eye”.

In the case of `CN1C(=N)N[C@](C)(c2cc(NC(=O)c3ccc(F)cn3)ccc2F)CS1(=O)=O` [MK-8931], the “CSF Aβ peptide concentrations” value in [7] is given as “significantly reduced”. For the same molecule, the safety profile result in series [8] is on record as “excellent safety profile with no immediately noticeable side effects”.
